In US7371889B2, “Chemical entities with multiple modes of anti-inflammatory action” (Sami Labs Limited, priority 2002, dated 2008):

Tests used:
T cells = experiment: In vitro proliferation of T cells from draining lymph nodes after concanavalin A stimulation, tritiated thymidine incorporation; type: cell-based; conditions: T cells isolated day 22 from treated rats, thymidine uptake
Procedure: (§1) Hindpaw swelling (days 3, 7, 11, 14, 17, 21) and nociception (days 15 and 21) were measured. On day 22 rats were sacrificed, draining lymph nodes were removed and T cells isolated. In vitro proliferation of T cells following stimulation with concanavalin A (0.5-5 mcg/mL) was measured using a tritiated thymidine incorporation assay.
IL-2 receptor expression on T cells was measured by FACS analysis. […] T cells were isolated and characterized by FACS analysis.

[1] = system: Freund's adjuvant (FA) arthritis; experiment: Freund's adjuvant (FA) arthritis in rats, nociception; type: in vivo; conditions: oral administration, dose giving the same extent of inhibition
Procedure: as §1, with “Freund's adjuvant (FA) arthritis was induced in rats by a single intraplantar injection into the right hindpaw of 100 microl of Mycobacterium butirricum (6 mg/mL). […] Hindpaw” for “Hindpaw”

SMILES | order of activity, inhibition of T-cell proliferation (T cells) | dose at which anti-nociceptive [1] [mg/kg]
CC(=O)O[C@@H]1CC[C@@]2(C)[C@@H](CC[C@]3(C)[C@@H]2C(=O)C=C2[C@@H]4[C@@H](C)[C@H](C)CC[C@]4(C)CC[C@@]23C)[C@@]1(C)C(=O)OCOC(=O)C(C)c1ccc(CC(C)C)cc1 (some centres unmarked) [SA-040, AKBBA-Ibuprofen conjugate] | SA-041>SA-040>N>1>AKBBA | 5.9
COc1ccc2cc([C@H](C)C(=O)O)ccc2c1 [N, Naproxen, reference compound] | SA-041>SA-040>N>1>AKBBA | –
CC(=O)OC1CCC2(C)C(CCC3(C)C2C(=O)C=C2C4C(C)C(C)CCC4(C)CCC23C)C1(C)C(=O)OCCl (stereo not drawn) [Example 1, 3-Acetyl-11-keto-β-boswellic acid chloromethyl ester] | SA-041>SA-040>N>1>AKBBA | –
CC(=O)O[C@@H]1CC[C@@]2(C)[C@@H](CC[C@]3(C)[C@@H]2C(=O)C=C2[C@@H]4[C@@H](C)[C@H](C)CC[C@]4(C)CC[C@]23C)[C@@]1(C)C(=O)O [AKBBA, 3-acetyl-11-keto-β-boswellic acid, reference compound] | SA-041>SA-040>N>1>AKBBA | –
